Where two headings read alike, the source gives them in different places.
What was measured:
[1] = test system: N18-RE-105 hybrid cells; test: Effect against glutamate-induced cytotoxicity (LDH release)
Protocol: We used ramelteon and metabolite 1 (as synthesized in Example 1) in this study. Idebenone and vitamine E (α-tocopherol) were purchased from Wako Pure Chemical Industries (Osaka, Japan) and used as positive control. All other chemicals were purchased from standard sources.
For cytotoxicity studies, cells were plated in 96-well plates at a density of 5,000 cells per well in 0.1 ml of the above medium. After culturing for 24 hr, the medium was removed and replaced with medium containing 10 mM glutamate with or without various concentrations of compounds. After 24 hours of incubation, cytotoxicity was quantitated by the release of the cytosolic enzyme lactate dehydrogenase (LDH) into the culture medium. The percentage of cell viability in the presence of each of the test compounds was calculated from the following formula: % cell viability in the presence of compound={LDH activity (absorbance at 550 nm) in the culture medium with compound plus 10 mM glutamate−LDH activity in the control culture medium/LDH activity in the culture medium with 10 mM glutamate−LDH activity in the control culture medium}×100.

[2] = test system: age-related macular degeneration; details: 3 mg daily at bedtime for at least three months; cited from earlier work
[3] = test system: human retinal pigment epithelial (RPE) cells; details: added diurnally to RPE cell cultures for three consecutive days; cited from earlier work
[4] = test system: melatonin MT1/MT2 receptors; details: cited from earlier work

COC1=C(OC)C(=O)C(CCCCCCCCCCO)=C(C)C1=O [Idebenone]
effect on cytotoxicity induced by 10 mM glutamate / cell viability [1]: cell viability was increased

COc1ccc2[nH]cc(CCNC(C)=O)c2c1 [melatonin]
visual acuity [2]: remained stable | effect on cytotoxicity induced by 10 mM glutamate / cell viability [1]: did not affect cell viability | H2O2-induced cell death and mitochondrial DNA damage [3]: markedly reduced

CCC(=O)NCC[C@@H]1CCc2cc(O)c3c(c21)CCO3 [metabolite 1, (S)—N-(2-[4-hydroxy-1,6,7,8-tetrahydro-2H-indeno[5,4-b]furan-8-yl]ethyl)propionamide]
effect on cytotoxicity induced by 10 mM glutamate / cell viability [1]: inhibited | cell death (absorbance, LDH) with varying amounts of compound ([1]; 10 mM glutamate treated cell culture, increasing amount, FIG. 2): cell death is reduced | toxicity of glutamate over the basal viability ([1]; highest concentration, 10 mM glutamate, FIGS. 1 and 2): completely prevented

CCC(=O)NCC[C@@H]1CCc2ccc3c(c21)CCO3 [ramelteon, (S)—N-[2-(1,6,7,8-tetrahydro-2H-indeno[5,4-b]furan-8-yl)ethyl]propionamide]
effect on cytotoxicity induced by 10 mM glutamate / cell viability [1]: did not affect cell viability | affinity for melatonin MT1/MT2 receptors [4]: high affinity

Cc1c(C)c2c(c(C)c1O)CC[C@@](C)(CCC[C@H](C)CCC[C@H](C)CCCC(C)C)O2 [tocopherol, α-tocopherol]
effect on cytotoxicity induced by 10 mM glutamate / cell viability ([1]; 10 mM glutamate, 24 hours incubation, LDH release, FIG. 1): cell viability was increased
